The values below come from PubChem BioAssay (NCI).

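A five-concentration, 48-hour dose response in 96-well plates underlies each endpoint, interpolated linearly between surrounding concentrations. The concentration for full growth arrest is given as TGI.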

Test systems include A549 NSCLC; K-562 leukemia; RPMI-8226 leukemia; PC-3 prostate; SW-620 colon; MOLT-4 leukemia; MDA-MB-231 breast; ACHN renal; A498 renal; MDA-N; LOX IMVI melanoma; SK-MEL-2 melanoma; TK-10 renal; UO-31 renal; U251 CNS; OVCAR-3 ovarian; HS 578T breast; SK-MEL-28 melanoma.
Assay in all cases: DTP human tumour cell line panel, 48 h

On to `O=c1[nH]nc(Cc2ccccc2)n1/N=C/c1ccccc1Cl`, for which the TGI in the experiment on A549 NSCLC, in the experiment on K-562 leukemia, in the experiment on RPMI-8226 leukemia, in the experiment on PC-3 prostate, in the experiment with SW-620 colon and in the experiment on MOLT-4 leukemia was above 100 µM throughout. Also, the TGI with MDA-MB-231 breast, in the experiment with ACHN renal, in the experiment with A498 renal, in the experiment with MDA-N, with LOX IMVI melanoma and in the experiment with SK-MEL-2 melanoma was above 100 µM each time. The TGI in the experiment with TK-10 renal, in the experiment on UO-31 renal, with U251 CNS, in the experiment on OVCAR-3 ovarian and in the experiment with HS 578T breast was above 100 µM in each case.
Regarding `Fc1ccccc1-c1nn2c(C34CC5CC(CC(C5)C3)C4)nnc2s1`, the TGI with A549 NSCLC, in the experiment with K-562 leukemia, with RPMI-8226 leukemia, with PC-3 prostate, in the experiment on SW-620 colon and with SK-MEL-28 melanoma was above 100 µM each time. Moreover, the concentration for total growth inhibition (TGI) with MOLT-4 leukemia, in the experiment on MDA-MB-231 breast, in the experiment on ACHN renal, in the experiment on A498 renal, in the experiment with MDA-N and in the experiment with LOX IMVI melanoma was above 100 µM each time. For the same compound, the TGI in the experiment with SK-MEL-2 melanoma, in the experiment on UO-31 renal, with U251 CNS, in the experiment with OVCAR-3 ovarian and in the experiment on HS 578T breast was above 100 µM each time.
With `O=C1CCC2CCC1C2` (stereo not drawn), the TGI in the experiment with A549 NSCLC, in the experiment on K-562 leukemia, in the experiment with RPMI-8226 leukemia, in the experiment with PC-3 prostate, with SK-MEL-28 melanoma and in the experiment on MOLT-4 leukemia was above 100 µM throughout. Moreover, the concentration for total growth inhibition (TGI) with MDA-MB-231 breast, in the experiment on ACHN renal, in the experiment on A498 renal, in the experiment with MDA-N, with LOX IMVI melanoma and in the experiment with SK-MEL-2 melanoma was above 100 µM in each case. Further, the TGI in the experiment on TK-10 renal, with UO-31 renal, in the experiment on U251 CNS, with OVCAR-3 ovarian and with HS 578T breast was above 100 µM in each case.
Regarding `COc1cc(NP(=O)(Oc2ccccc2)Oc2ccccc2)ccc1Nc1c2ccccc2nc2c1[nH]c1ccccc12`, the TGI is 2.22 µM with A549 NSCLC; 6.71 µM in the experiment on K-562 leukemia; above 89.7 µM in the experiment on PC-3 prostate; 12.9 µM in the experiment with SW-620 colon; 48.2 µM with SK-MEL-28 melanoma; 0.204 µM with MOLT-4 leukemia. The TGI in the experiment with MDA-MB-231 breast is 28.6 µM; in the experiment with ACHN renal, 11.9 µM; in the experiment on A498 renal, 14 µM; in the experiment on MDA-N, 15.4 µM; in the experiment on LOX IMVI melanoma it was above 100 µM; in the experiment with SK-MEL-2 melanoma it was 22.6 µM. In addition, the total growth inhibition concentration (TGI) in the experiment on TK-10 renal came to 12.3 µM; in the experiment with UO-31 renal, 16.6 µM; in the experiment with U251 CNS, 6.85 µM; with OVCAR-3 ovarian it was 4.82 µM; in the experiment with HS 578T breast, 98.1 µM.
`CC(=O)N(CCc1ccccc1)C(C#N)c1ccc(OCCCCCCCCCCOc2ccc(C(C#N)N(CCc3ccccc3)C(C)=O)cc2)cc1` (stereo not drawn): the total growth inhibition concentration (TGI) in the experiment with A549 NSCLC, in the experiment on K-562 leukemia, with PC-3 prostate, in the experiment with SW-620 colon, in the experiment with SK-MEL-28 melanoma and in the experiment with MOLT-4 leukemia was above 100 µM in each case. Also, the TGI in the experiment on MDA-MB-231 breast is 48.5 µM; with ACHN renal, above 100 µM; in the experiment on A498 renal, 92.6 µM; in the experiment with MDA-N, above 100 µM; in the experiment on LOX IMVI melanoma it was above 100 µM; with SK-MEL-2 melanoma, above 100 µM. Further, the TGI was above 100 µM in the experiment with TK-10 renal; above 100 µM in the experiment on UO-31 renal; 64.1 µM with U251 CNS; above 100 µM in the experiment on OVCAR-3 ovarian; 56.1 µM with HS 578T breast.
On to `COc1ccc(C2=C(N)c3c(OC)cccc3C2=O)cc1`, for which the TGI in the experiment on K-562 leukemia, in the experiment with RPMI-8226 leukemia, in the experiment on PC-3 prostate, in the experiment with SW-620 colon, in the experiment on SK-MEL-28 melanoma and in the experiment with MOLT-4 leukemia was above 100 µM throughout. In addition, the TGI with MDA-MB-231 breast, in the experiment with A498 renal, with MDA-N, in the experiment on LOX IMVI melanoma, with SK-MEL-2 melanoma and with UO-31 renal was above 100 µM throughout. The concentration for total growth inhibition (TGI) with U251 CNS, in the experiment on OVCAR-3 ovarian and in the experiment with HS 578T breast was above 100 µM in each case.
As for `O=C(CCc1ccc(O)cc1)NCCc1cccc(OCc2ccccc2)c1`, the TGI was above 100 µM in the experiment on A549 NSCLC; 65.9 µM with K-562 leukemia; 88.4 µM in the experiment on PC-3 prostate; 63.2 µM in the experiment with SK-MEL-28 melanoma; 48.4 µM with MOLT-4 leukemia; above 100 µM with MDA-MB-231 breast. In addition, the total growth inhibition concentration (TGI) in the experiment with ACHN renal is above 100 µM; in the experiment with A498 renal it was above 100 µM; with MDA-N, 68.4 µM; in the experiment on LOX IMVI melanoma, 30.4 µM; in the experiment with SK-MEL-2 melanoma, 39.1 µM; with TK-10 renal, 79.5 µM. Further, the concentration for total growth inhibition (TGI) was 53.9 µM in the experiment on UO-31 renal, 64.9 µM in the experiment on U251 CNS, 35.1 µM in the experiment on OVCAR-3 ovarian and above 100 µM with HS 578T breast.
On to `CCOC(=O)C1C(c2ccc(OC)cc2)c2c([nH][nH]c2=O)CC1(O)OCC` (stereo not drawn), for which the TGI in the experiment on A549 NSCLC, with RPMI-8226 leukemia, with PC-3 prostate, in the experiment on SW-620 colon, in the experiment with SK-MEL-28 melanoma and with MOLT-4 leukemia was above 100 µM throughout. Further, the concentration for total growth inhibition (TGI) in the experiment with MDA-MB-231 breast, with ACHN renal, with A498 renal, in the experiment on MDA-N, in the experiment with LOX IMVI melanoma and in the experiment with SK-MEL-2 melanoma was above 100 µM throughout. Moreover, the concentration for total growth inhibition (TGI) with TK-10 renal, in the experiment with UO-31 renal, with U251 CNS, in the experiment with OVCAR-3 ovarian and in the experiment on HS 578T breast was above 100 µM in each case.
